What was measured:
[1] = system: phospho-ERK in AsPC-1 (G12D) cells; assay: Inhibition of KRas-mediated phosphorylation of ERK (in-cell western); assay type: cell-based; conditions: Homo sapiens, ASPC1, 3 h, 3 hours compound, phospho-ERK normalized to GAPDH
Method: (§1) Diluted compounds were then added in a final concentration of 0.5% DMSO. After 3 hours, 50 μL of 4.0% formaldehyde was added and the plates incubated at room temperature for 20 minutes. The plates were then dumped and permeabilized with 150 μL of ice cold 100% methanol for 10 minutes.
(§2) The amount of phospho-ERK was determined using an antibody specific for the phosphorylated form of ERK and compared to the amount of GAPDH. […] The plates were incubated overnight at 4° C. The plates were washed 3× with 150 uL PBS+0.1% Tween 20.
(§3) The plates were washed 3× with 150 uL PBS+0.1% Tween 20. Plates were imaged dry on a Li-COR Odyssey CLX plate reader.
(§4) The phospho-ERK (Thr202/Tyr204) signal was normalized to the GAPDH signal for each well and percent of DMSO control values were calculated. IC50 values were generated using a 4-parameter fit of the dose response curve.

KRas G12D = KRas G12D (Homo sapiens, UniProt P01116, G12D); assay: biochemical;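 note: TR-FRET displacement binding assay on KRas, read after a one-hour incubation at room temperature, IC50 fitted from percent-of-control values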
Sequence of KRas G12D (P01116 1-169 isoform P01116-2 G12D): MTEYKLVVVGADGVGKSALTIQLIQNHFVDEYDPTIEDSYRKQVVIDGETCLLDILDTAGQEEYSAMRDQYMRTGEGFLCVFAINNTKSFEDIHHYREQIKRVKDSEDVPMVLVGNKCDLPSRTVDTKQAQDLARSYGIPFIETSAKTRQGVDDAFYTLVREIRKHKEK
Method: (§5) The ability of a compound to bind to KRas was measured using a TR-FRET displacement assay. […] After a 60-minute incubation at room temperature, the reaction was measured using a BMG LABTECH CLARIO star Plus via TR-FRET. […] The POC values were fit to a 4-parameter IC50 equation and the IC50 value reported.

KRas G12V = KRas G12V (Homo sapiens, UniProt P01116, G12V); assay: biochemical;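 note: KRas binding measured by TR-FRET displacement at room temperature, IC50 fitted from percent of control values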
Sequence of KRas G12V (P01116 1-169 isoform P01116-2 G12V): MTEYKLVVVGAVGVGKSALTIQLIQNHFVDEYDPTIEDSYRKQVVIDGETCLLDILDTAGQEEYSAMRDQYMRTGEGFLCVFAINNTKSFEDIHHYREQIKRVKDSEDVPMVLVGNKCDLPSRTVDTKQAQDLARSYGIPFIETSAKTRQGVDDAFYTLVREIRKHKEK
Method: as §5

KRas G12R = KRas G12R (Homo sapiens, UniProt P01116, G12R); assay: biochemical;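 note: TR-FRET displacement assay of compound binding to KRas, read after one hour at room temperature, potency from a four-parameter fit of percent-of-control values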
Sequence of KRas G12R (P01116 1-169 isoform P01116-2 G12R): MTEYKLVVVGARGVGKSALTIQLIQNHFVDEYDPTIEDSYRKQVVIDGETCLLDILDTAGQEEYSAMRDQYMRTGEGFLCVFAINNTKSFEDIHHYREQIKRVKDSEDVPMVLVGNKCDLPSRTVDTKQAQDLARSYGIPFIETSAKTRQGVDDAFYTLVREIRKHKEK
Method: as §5

pERK in MKN1 cells = assay: Inhibition of KRas phosphorylation of ERK (Cisbio HTRF pERK assay); conditions: Homo sapiens, MKN-1, 3 h, read-out: Inhibition (HTRF IC50) of KRas-mediated Phosphorylation of ERK, MKN1
pERK in PSN1 cells = assay: as above; conditions: Homo sapiens, PSN1, 3 h, read-out: Inhibition (HTRF IC50) of KRas-mediated Phosphorylation of ERK, PSN1
[2] = system: phospho-ERK in NCI-H460 (Q61H) cells; assay: Inhibition of KRas-mediated phosphorylation of ERK (in-cell western); assay type: cell-based; conditions: Homo sapiens, NCI-H460, 3 h, 3 hours compound, phospho-ERK normalized to GAPDH
Method: as §1, §2, §3, §4

[3] = system: phospho-ERK in NCI-H727 (G12V) cells; assay: as above; assay type: cell-based; conditions: Homo sapiens, NCI-H727, 3 h, 3 hours compound, phospho-ERK normalized to GAPDH
Method: as §1, §2, §3, §4

KRas G12A = KRas G12A (Homo sapiens, UniProt P01116, G12A); assay: biochemical;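 note: binding to KRas measured by TR-FRET displacement after one hour at room temperature, IC50 from a four-parameter fit of percent-of-control values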
Sequence of KRas G12A (P01116 1-169 isoform P01116-2 G12A): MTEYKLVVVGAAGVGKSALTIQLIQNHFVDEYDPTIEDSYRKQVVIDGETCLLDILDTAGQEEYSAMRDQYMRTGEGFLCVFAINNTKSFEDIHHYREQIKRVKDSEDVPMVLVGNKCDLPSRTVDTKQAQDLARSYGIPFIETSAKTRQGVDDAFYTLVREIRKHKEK
Method: as §5

KRas G12S = KRas G12S (Homo sapiens, UniProt P01116, G12S); assay: biochemical;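 note: TR-FRET displacement binding to KRas, read after one hour incubation at room temperature, IC50 from four-parameter fit of percent of control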
Sequence of KRas G12S (P01116 1-169 isoform P01116-2 G12S): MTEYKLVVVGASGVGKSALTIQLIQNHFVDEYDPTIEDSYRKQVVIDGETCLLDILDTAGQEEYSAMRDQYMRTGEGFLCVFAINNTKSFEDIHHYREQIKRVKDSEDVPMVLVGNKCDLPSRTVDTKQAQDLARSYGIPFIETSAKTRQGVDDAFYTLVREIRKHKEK
Method: as §5

KRas G12C = KRas G12C (Homo sapiens, UniProt P01116, G12C); assay: biochemical;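 note: binding to KRas assessed by TR-FRET displacement after one hour incubation at room temperature, potency fitted from percent-of-control values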
Sequence of KRas G12C (P01116 1-169 isoform P01116-2 G12C): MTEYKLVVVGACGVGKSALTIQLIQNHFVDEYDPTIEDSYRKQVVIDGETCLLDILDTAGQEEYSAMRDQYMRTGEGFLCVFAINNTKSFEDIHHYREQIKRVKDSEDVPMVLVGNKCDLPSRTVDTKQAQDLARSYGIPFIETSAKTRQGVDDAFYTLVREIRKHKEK
Method: as §5

KRas WT = KRas WT (Homo sapiens, UniProt P01116); assay: biochemical;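 note: binding to KRas read as TR-FRET displacement after a one-hour room-temperature incubation, IC50 derived from percent-of-control values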
Sequence of KRas WT (P01116 1-169 isoform P01116-2): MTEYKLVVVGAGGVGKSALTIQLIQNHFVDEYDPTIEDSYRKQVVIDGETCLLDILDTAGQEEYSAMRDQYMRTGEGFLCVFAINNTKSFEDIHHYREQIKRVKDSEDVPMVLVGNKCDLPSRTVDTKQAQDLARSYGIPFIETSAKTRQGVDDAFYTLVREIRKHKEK
Method: as §5

pERK in ASPC1 cells = assay: Inhibition of KRas phosphorylation of ERK (Cisbio HTRF pERK assay); conditions: Homo sapiens, ASPC1, read-out: Inhibition (HTRF IC50) of KRas-mediated Phosphorylation of ERK, AsPC-1
pERK in H727 cells = assay: as above; conditions: Homo sapiens, NCI-H727, read-out: Inhibition (HTRF IC50) of KRas-mediated Phosphorylation of ERK, H727
pERK in H460 cells = assay: as above; conditions: Homo sapiens, NCI-H460, read-out: Inhibition (HTRF IC50) of KRas-mediated Phosphorylation of ERK, H460
Method: (§6) To harvest cells from flask using 0.05% Trypsin/EDTA solution. Add 10 mL of media to stop trypsinizing. Pipette the cells into a conical bottom 50 mL centrifuge tube and centrifuge 5 min×1000 rpm. • 2. Re-suspend the cell pellet in media, take a cell count, and then adjust the cell density using fresh media. • 3. Seed 6,000 cells into cell culture plate with 50 μL media. […] Incubate cell plate overnight in a 37° C., 5% CO2 incubator. • Compound titrations • 1. Use Tecan to complete the compound addition. Compounds start from 10 uM top, 3-fold dilution, and 10 doses. The final DMSO concentration is 0.8%. Dispensed 0.2 uM Trametinib as Min control. • 2. Incubate cell plate for 3 hrs in the incubator. • Detection with cisbio pERK HTRF kit • 1. […] At the end of the compound treatment, flick-off the media. • 3. Add 35 μL of lysis buffer per well using a Multidrop Combi. Then place on a plate agitator shaking at 300 rpm at 4° C. for 40 mins. • 4. Make up the HTRF antibody buffer. For each assay plate, mix 50 μL of d2-conjugate antibody with 950 μL of detection buffer. Similarly, mix 50 μL of Cryptate antibody with 950 μL of detection buffer. Then mix the two diluted antibodies together. • 5. Dispense 3.4 μL the antibody buffer to wells of an empty assay plate. Seal the plate and centrifuge plate 30 sec×1000 rpm. • 6. At the end of the 4° C. lysis, centrifuge the lysate plates 3 mins×1500 rpm. • 7. Use the Bravo to transfer 13.6 μL of lysate from cell culture plate to assay plate.
(§7) Then incubate assay plate for 2 hrs at room temperature. […] At the end of incubation, read plate on the Envision after centrifuging plate 30 sec× • 1000 rpm.

pERK in HCT116 cells = assay: as above; conditions: Homo sapiens, HCT-116, read-out: Inhibition (HTRF IC50) of KRas-mediated Phosphorylation of ERK, HCT116
Method: as §6, §7

SMILES | IC50 (KRas G12D) | IC50 (KRas G12V) | IC50 (KRas G12R) | IC50 (pERK in MKN1 cells) | IC50 (pERK in PSN1 cells) | IC50 (KRas G12A) | IC50 (KRas G12S) | IC50 (KRas G12C) | IC50 (KRas WT) | IC50 (pERK in ASPC1 cells) | IC50 (pERK in H727 cells) | IC50 (pERK in H460 cells) | IC50 (pERK in HCT116 cells) | IC50 [1] | IC50 [2] | IC50 [3]
C#Cc1c(F)ccc2cc(O)cc(-c3ncc4c(N5CCC[C@](C)(O)C5)nc(OC[C@@]56CCCN5C[C@H](F)C6)nc4c3F)c12 [Example 10] | ≤ 2 nM | ≤ 2 nM | 3 nM | 13 nM | 3340 nM | – | – | – | – | – | – | – | – | 297 nM | – | –
CCc1c(F)ccc2cc(O)cc(-c3ncc4c(N5CCCC6(CC(=O)NC6=O)C5)nc(OC[C@@]56CCCN5C[C@H](F)C6)nc4c3F)c12 (stereo partly drawn) [Example 318, 7-(7-(8-ethyl-7-fluoro-3-hydroxynaphthalen-1-yl)-8-fluoro-2-(((2R,7aS)-2-fluorohexahydro-1H-pyrrolizin-7a-yl)methoxy)pyrido[4,3-d]pyrimidin-4-yl)-2,7-diazaspiro[4.5]decane-1,3-dione] | ≤ 2 nM | ≤ 2 nM | ≤ 2 nM | 13 nM | 877 nM | ≤ 2 nM | ≤ 2 nM | ≤ 2 nM | ≤ 2 nM | 133 nM | 69 nM | 65 nM | 60 nM | – | – | –
CCc1cccc2cc3[nH]ncc3c(-c3ncc4c(N5CCC[C@@](C)(O)C5)nc(OC[C@@]56CCCN5C[C@H](F)C6)nc4c3F)c12 [Example 473, (3R)-1-(7-(5-ethyl-1H-benzo[f]indazol-4-yl)-8-fluoro-2-(((2R,7aS)-2-fluorohexahydro-1H-pyrrolizin-7a-yl)methoxy)pyrido[4,3-d]pyrimidin-4-yl)-3-methylpiperidin-3-ol] | 11 nM | 8 nM | 14 nM | – | – | 8 nM | 9 nM | 9 nM | 10 nM | – | – | – | – | – | 325 nM | 320 nM

Continued by falling IC50 (KRas G12D), values first:

IC50 (KRas G12D) | IC50 (KRas G12V) | IC50 (KRas G12R) | IC50 (pERK in MKN1 cells) | IC50 (pERK in PSN1 cells) | IC50 (KRas G12A) | IC50 (KRas G12S) | IC50 (KRas G12C) | IC50 (KRas WT) | IC50 (pERK in ASPC1 cells) | IC50 (pERK in H727 cells) | IC50 (pERK in H460 cells) | IC50 (pERK in HCT116 cells) | SMILES | IC50 [1] | IC50 [2] | IC50 [3]
31 nM | 6 nM | 10 nM | – | – | – | – | – | – | – | – | – | – | OCC1COCCN(c2nc(OCC34CCCN3CCC4)nc3c(F)c(-c4cc(O)cc5ccc(F)c(F)c45)ncc23)C1 (stereo not shown) [Example 457, 5,6-difluoro-4-(8-fluoro-2-((hexahydro-1H-pyrrolizin-7a-yl)methoxy)-4-(6-(hydroxymethyl)-1,4-oxazepan-4-yl)pyrido[4,3-d]pyrimidin-7-yl)naphthalen-2-ol] | – | 9410 nM | 3950 nM
25 nM | 6 nM | 14 nM | – | – | – | – | – | – | – | – | – | – | CCc1c(F)ccc2cc(O)cc(-c3ncc4c(N5CCC[C@@]6(CNC(=O)C6)C5)nc(OC[C@]56CCCN5C[C@@H](O)C6)nc4c3F)c12 [Example 305, (R)-7-(7-(8-ethyl-7-fluoro-3-hydroxynaphthalen-1-yl)-8-fluoro-2-(((2S,7aR)-2-hydroxytetrahydro-1H-pyrrolizin-7a(5H)-yl)methoxy)pyrido[4,3-d]pyrimidin-4-yl)-2,7-diazaspiro[4.5]decan-3-one] | ≥ 10000 nM | ≥ 10000 nM | ≥ 10000 nM
3 nM | 3 nM | 4 nM | 26 nM | ≥ 10000 nM | – | – | – | – | – | – | – | – | CCc1c(F)ccc2cc(O)cc(-c3ncc4c(N5CCC[C@@](C)(O)C5)nc(OC[C@@H]5C[C@@H](OC(=O)NC)CN5C)nc4c3F)c12 [Example 12, (3R,5S)-5-(((7-(8-ethyl-7-fluoro-3-hydroxy)naphthalen-1-yl)-8-fluoro-4-((R)-3-hydroxy-3-methylpiperidin-1-yl)pyrido[4,3-d]pyrimidin-2-yl)oxy)methyl)-1-methylpyrrolidin-3-yl methylcarbamate] | 497 nM | – | –
3 nM | ≤ 2 nM | 3 nM | 10 nM | 5180 nM | ≤ 2 nM | ≤ 2 nM | ≤ 2 nM | ≤ 2 nM | 115 nM | 82 nM | 100 nM | 65 nM | CCc1c(F)ccc2cc(O)cc(-c3ncc4c(N5C[C@@H]6C[C@H](C5)[C@H](O)C6)nc(OCC5(CN6CCCC6)CC5)nc4c3F)c12 [Example 320, (1R,5R,6R)-3-(7-(8-ethyl-7-fluoro-3-hydroxynaphthalen-1-yl)-8-fluoro-2-((1-(pyrrolidin-1-ylmethyl)cyclopropyl)methoxy)pyrido[4,3-d]pyrimidin-4-yl)-3-azabicyclo[3,2,1]octan-6-ol] | – | – | –
